Experimental data taken from patent US12358895B2, “Process for manufacture of (S)-N-(3-((2-((4-((1-acetylpyrrolidin-3-yl)(methyl)amino)phenyl)amino)-5-methoxypyrimidin-4-yl)oxy)phenyl)acrylamide, and formulations thereof” (ACEA Therapeutics, Inc., priority 2018, dated 2025).

Legend:
Assay type in all cases: physicochemical
[1] = pKa of the drug substance freebase
Description: (§1) The drug substance freebase is a weakly basic compound with a pKa of approximately 5.3. The aqueous solubility of the freebase is pH dependent. […] To enhance the absorption and bioavailability, a tartrate salt (Compound A-TA) was made to enhance the dissolution of the molecule in compositions intended for oral administration.

Aqueous solubility = experiment: Aqueous solubility
Description: Therefore, the L-(+)-tartrate salt of Compound A, referred to hereinafter as Compound A L-(+)-tartrate, or Compound A-TA, is especially suited for development and is used in many of the compositions and methods herein.
as §1

[2] = Storage stability of encapsulated Compound A-TA in HDPE bottle with deoxidizer; conditions: opaque HDPE bottle, LDPE cap, deoxidizer (PharmaKeep CD20)
[3] = Chemical and polymorphic stability of solid forms

Row | SMILES | pKa [1] | water solubility (Aqueous solubility) | aqueous solubility at higher pH (Aqueous solubility) | aqueous solubility at higher pH (Aqueous solubility; listed as freebase) | aqueous solubility at lower pH (Aqueous solubility; lower pH) | storage stability at 40° C. and 75% relative humidity ([2]; up to 6 months) | storage stability at 25° C. and 60% relative humidity ([2]; up to 24 months) | chemical and polymorphic stability [3]
1 | C=CC(=O)Nc1cccc(Oc2nc(Nc3ccc(N(C)[C@H]4CCN(C(C)=O)C4)cc3)ncc2OC)c1 [Compound A, (S)—N-(3-(2-(4-((1-acetylpyrrolidin-3-yl)(methyl)amino)phenylamino)-5-methoxypyrimidin-4-yloxy)phenyl)acrylamide] | ~5.3 | low water solubility | nearly insoluble | almost insoluble | increases dramatically | – | – | –
2 | C=CC(=O)Nc1cccc(Oc2nc(Nc3ccc(N(C)[C@H]4CCN(C(C)=O)C4)cc3)ncc2OC)c1.O=C(O)C(O)C(O)C(=O)O [Compound A-TA, (S)—N-(3-((2-((4-((1-acetylpyrrolidin-3-yl)(methyl)amino)phenyl)amino)-5-methoxypyrimidin-4-yl)oxy)phenyl)acrylamide L-(+)-tartrate dihydrate] | – | – | – | – | – | highly stable | highly stable | high chemical and polymorphic stability
